Source: patent US12404486B1, “Aspergillus oryzae JAAS-32 and use thereof in preparation of larval Hermetia illucens paste protein peptide” (Jiangsu Academy of Agricultural Sciences, priority 2024, dated 2025)

Assays:
Assay in all cases: Oxford cup inhibition zone test of antibacterial Hermetia illucens peptide
Assay type in all cases: cell-based
Details in all cases: positive control, 1 mg/ml of chloramphenicol
[1] = test system: Vibrio alginolyticus
From the text: (§1) Article number (Art. No.) of Staphylococcus aureus: CICC 10306; Art. No. of Escherichia coli: CICC 10372; Art. No. of Vibrio alginolyticus: CICC 10484.
(§2) 1. Extraction of the Antibacterial Peptide of the Larval Hermetia Illucens Paste
(§3) (1) Preparation of an antibacterial peptide extraction solution (10% acetic acid and 0.01 mol/L Na2EDTA).
(§4) (2) The fermentation liquor of larval Hermetia illucens paste in the untreated group and the Aspergillus oryzae fermentation group of Example 2 was mixed with the antibacterial peptide extraction solution well (v: v=1:10), respectively, and liquid-solid extracted for half an hour at 200 rpm and 37° C., then transferred to a centrifugal machine (3500 rpm, 25 min); supernatant was collected as a crude extraction solution of the antibacterial peptide. The crude extraction solution was further frozen-dried to obtain the antibacterial Hermetia illucens peptide.
(§5) 2. Determination of Antibacteral Activity of the Antibacterial Hermetia Illucens Peptide
(§6) […] The concentration of the Staphylococcus aureus solution and Escherichia coli solution as well as Vibrio alginolyticus solution was determined 1.0×10^9 CFU/mL, 1.0×10^9 CFU/mL, and 1.0×10^7 CFU/mL, respectively; proper amount of the Staphylococcus aureus solution and Escherichia coli solution were absorbed and evenly coated on LB media, and the Vibrio alginolyticus solution was coated on a TCBS plate. An Oxford cup having a diameter of 7.5 mm was slightly placed on the LB plate, added with an equivalent amount of the antibacterial Hermetia illucens peptide, and cultured in a 37° C. thermostatic incubator for 10 hours, then the diameter of inhibition zones was observed and measured.

[2] = test system: Escherichia coli
From the text: as §1, §2, §3, §4, §5, §6

[3] = test system: Staphylococcus aureus
From the text: as §1, §2, §3, §4, §5, §6

For `O=C(N[C@H](CO)[C@H](O)c1ccc([N+](=O)[O-])cc1)C(Cl)Cl` [chloramphenicol], the “Diameter of inhibition zone” value [1] was 26 mm, the “Diameter of inhibition zone” value [2] was 17 mm and the “Diameter of inhibition zone” value [3] was 16 mm.
